Experimental data taken from ChEMBL document CHEMBL1150843, “Hortein, a new natural product from the fungus Hortaea werneckii associated with the sponge Aplysina aerophoba” (J Nat Prod, 2001).
Calls of active or inactive are those of the source.

Columns and labels:
Type in all cases: functional, organism-based
[1] = tested on: Escherichia coli; test: Antibacterial activity against Escherichia coli HB101 after 4 days by serial dilution test
[2] = tested on: Spodoptera littoralis; test: Insecticidal activity against Spodoptera littoralis larvae administered through artificial diet by chronic feeding assay
[3] = tested on: Bacillus subtilis; test: Antibacterial activity against Bacillus subtilis 168 after 4 days by serial dilution test; conditions: subsp. subtilis str. 168
[4] = tested on: Candida albicans; test: Antifungal activity against Candida albicans after 4 days by serial dilution test
[5] = tested on: Staphylococcus aureus; test: Antibacterial activity against Staphylococcus aureus ATCC 25923 after 4 days by serial dilution test

Measured: Activity

O=C1CCC(=O)c2c1c(O)c(O)c1c2-c2ccc(O)c3c(O)ccc-1c23
inactive: [1] | [2] | [3] | [4] | [5]
